Data as given in US20080025916A1, “Tailored Treatment Suitable for Different Forms of Mastocytosis” (AB Science, priority 2003, published 2008).

What was measured:
[1] = tested on: mouse bone marrow-derived mast cell line (BMMC) expressing the mutant D816V form of the human c-kit; experiment: proliferation of BMMC line, viable cell count by trypan blue exclusion assay; format: cell-based; settings: 24, 48 and 72 hours
Method: (§1) At 24, 48 and 72 hours, the number of viable cells was determined in each condition using the trypan blue exclusion assay.

[2] = tested on: lymphoid BaF/3 murine cell line transfected with the D816V mutant form of the human c-kit; experiment: proliferation of BaF/3 cells transfected with D816V c-kit; format: cell-based; settings: not affected up to 1 microM, inhibited above 1 microM as in BMMC
Method: as §1

c-kit wild = c-kit wild (Homo sapiens, UniProt P10721); settings: shown in WO 02/080925; cited from earlier work
[3] = biological target: 816 mutated c-kit (D816V mutant form of the human c-kit receptor) (Homo sapiens, UniProt P10721, D816V)
Method: as §1

[4] = tested on: juxtamembrane mutated c-kit; settings: shown in WO 02/080925; cited from earlier work

816 mutated c-kit (D816V mutant form of the human c-kit receptor), sequence (P10721 26-976 D816V): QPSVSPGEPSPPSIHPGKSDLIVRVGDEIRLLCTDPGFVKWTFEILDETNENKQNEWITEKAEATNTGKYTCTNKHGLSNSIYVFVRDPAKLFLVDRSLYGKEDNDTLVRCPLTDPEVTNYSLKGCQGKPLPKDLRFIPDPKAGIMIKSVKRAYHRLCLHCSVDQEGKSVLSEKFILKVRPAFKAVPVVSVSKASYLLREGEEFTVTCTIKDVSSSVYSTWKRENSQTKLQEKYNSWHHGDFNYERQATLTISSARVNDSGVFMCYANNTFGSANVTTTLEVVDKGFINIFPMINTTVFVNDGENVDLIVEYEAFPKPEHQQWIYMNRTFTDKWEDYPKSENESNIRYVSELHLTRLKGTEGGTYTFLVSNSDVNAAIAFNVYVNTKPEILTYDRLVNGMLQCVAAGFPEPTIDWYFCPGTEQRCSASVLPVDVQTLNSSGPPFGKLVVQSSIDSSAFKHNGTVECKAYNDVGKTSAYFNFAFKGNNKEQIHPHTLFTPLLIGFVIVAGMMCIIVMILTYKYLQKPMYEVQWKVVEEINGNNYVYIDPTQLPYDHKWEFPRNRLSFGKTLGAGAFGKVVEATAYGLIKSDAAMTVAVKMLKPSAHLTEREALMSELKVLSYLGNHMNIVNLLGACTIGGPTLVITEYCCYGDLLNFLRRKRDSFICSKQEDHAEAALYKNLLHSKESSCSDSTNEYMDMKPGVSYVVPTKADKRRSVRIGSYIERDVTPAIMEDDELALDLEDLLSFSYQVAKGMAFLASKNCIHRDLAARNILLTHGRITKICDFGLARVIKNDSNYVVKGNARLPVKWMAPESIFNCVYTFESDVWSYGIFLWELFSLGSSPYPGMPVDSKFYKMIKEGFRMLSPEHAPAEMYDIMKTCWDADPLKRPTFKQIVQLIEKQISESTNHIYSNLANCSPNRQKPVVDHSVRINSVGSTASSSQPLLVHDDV
c-kit wild, sequence (P10721 26-976): as the sequence (P10721 26-976 D816V) above, with V791D counted along it

Cc1ccc(NC(=O)c2ccc(CN3CCN(C)CC3)cc2)cc1Nc1nccc(-c2cccnc2)n1 [STI571]
proliferation of the BMMC line with the mutant D816V form of the human c-kit ([1]; STI-571 under or equal to 1 microM, FIG. 2): not affected | proliferation of the BMMC line with the mutant D816V form of the human c-kit ([1]; concentrations of STI-571 above 1 microM (up to 10^-5 M)): dose- and time-dependently inhibited | proliferation of BaF/3 cells with D816V human c-kit (same result as BMMC) [2]: also observed | activity on c-kit wild (c-kit wild): active | resistance of the D816V mutant form of the human c-kit receptor ([3]; pharmacological doses): resistant | activity on 816 mutated c-kit ([3]; see FIGS. 1 and 2): not active | activity on the juxtamembrane mutated c-kit [4]: very active
